Among the test systems are HL-60; SF-268; UACC-257; OVCAR-3; MDA-MB-435; SR; RXF 393; OVCAR-8; UO-31; NCI/ADR-RES; SNB-75; SK-MEL-28; U-251; OVCAR-5; OVCAR-4; IGROV-1; M14; HOP-92; SK-MEL-5; Malme-3M.
What all share (test): NCI anticancer screen, dose series, 48 h

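Interpolation was linear, between the two tested concentrations surrounding the appropriate level; five concentrations were tested over 48 hours in 96-well plates. GI50: concentration for 50% inhibition of growth.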 Activity calls are given as the source filed them. Cut-off read from the data, not from the text of the source: active = GI50 up to about 1.1 µM and inactive = higher.

`CCOC(=O)C1(C(=O)OCC)C[C@H](C)[C@](C)(O)C1`: the GI50 with HL-60 was 37.8 µM (inactive); in the test with SF-268, > 100 µM (inactive); with UACC-257, > 100 µM (inactive); with OVCAR-3 it was > 100 µM (inactive); in the test on MDA-MB-435, > 100 µM (inactive); in the test with SR it was > 100 µM (inactive). The GI50 in the test on RXF 393, with OVCAR-8, in the test with UO-31, in the test with NCI/ADR-RES, in the test with SNB-75 and with SK-MEL-28 was > 100 µM (inactive) throughout. The GI50 with U-251, in the test with OVCAR-5, in the test on OVCAR-4, in the test with IGROV-1, in the test with M14 and in the test on HOP-92 was > 100 µM (inactive) in each case. In addition, the GI50 in the test with SK-MEL-5 and in the test with Malme-3M was > 100 µM (inactive) in each case.

Regarding `CC(C)N(CC(=O)O)CC(=O)O`, the GI50 in the test on HL-60, in the test on SF-268, in the test on UACC-257, with OVCAR-3, in the test on MDA-MB-435 and in the test with SR was > 100 µM (inactive) each time. Further, the GI50 with RXF 393, in the test with OVCAR-8, in the test on UO-31, in the test with NCI/ADR-RES, with SNB-75 and in the test with SK-MEL-28 was > 100 µM (inactive) each time. The GI50 in the test on U-251, with OVCAR-5, in the test on OVCAR-4, with IGROV-1, with M14 and in the test on HOP-92 was > 100 µM (inactive) throughout. Also, the GI50 with SK-MEL-5 and in the test with Malme-3M was > 100 µM (inactive) each time.

With `CC(=O)OCC1OC(n2c(N)c(C#N)c(-c3cccc(Cl)c3)c(C#N)c2=S)C(OC(C)=O)C(OC(C)=O)C1OC(C)=O` (centres undefined), the GI50 is 17.9 µM (inactive) in the test on HL-60; 13.3 µM (inactive) in the test on SF-268; 22 µM (inactive) in the test on UACC-257; 14.8 µM (inactive) in the test with OVCAR-3; 15.4 µM (inactive) with MDA-MB-435; 14.7 µM (inactive) in the test on SR. Moreover, the GI50 with RXF 393 is 3.9 µM (inactive); with OVCAR-8, 14.9 µM (inactive); in the test with UO-31, 40.2 µM (inactive); with NCI/ADR-RES, 28.4 µM (inactive); in the test on SNB-75, 22.2 µM (inactive); with SK-MEL-28, 38.7 µM (inactive). Also, the GI50 in the test with U-251 was 22.8 µM (inactive); in the test with OVCAR-5, 44.8 µM (inactive); in the test on OVCAR-4, 16.7 µM (inactive); in the test on IGROV-1, 30.5 µM (inactive); with M14, 22.4 µM (inactive); with HOP-92, 23 µM (inactive). The figures for the GI50 with SK-MEL-5 and in the test with Malme-3M were 14.3 µM (inactive) and 25.2 µM (inactive), respectively.

In the case of `COc1ccc(C(=O)/C=C/c2cc(O)c(O)cc2F)c(OC)c1`, the GI50 in the test with HL-60 is 1.15 µM (inactive); with SF-268, 7.28 µM (inactive); in the test on UACC-257, 10.5 µM (inactive); in the test with OVCAR-3 it was 0.327 µM (active); in the test with MDA-MB-435 it was 2.9 µM (inactive); in the test with SR, 0.564 µM (active). The GI50 was 9.68 µM (inactive) in the test with RXF 393; 14.5 µM (inactive) in the test with OVCAR-8; 7.67 µM (inactive) in the test with UO-31; 7.85 µM (inactive) in the test with NCI/ADR-RES; 4.67 µM (inactive) in the test on SNB-75; 11.8 µM (inactive) in the test on SK-MEL-28. In addition, the GI50 was 5.45 µM (inactive) with U-251; 15.3 µM (inactive) in the test on OVCAR-5; 12.5 µM (inactive) in the test on OVCAR-4; 7.96 µM (inactive) with IGROV-1; 10.2 µM (inactive) in the test on M14; 50.1 µM (inactive) with HOP-92. Further, the GI50 was 8.05 µM (inactive) with SK-MEL-5 and 7.71 µM (inactive) with Malme-3M.

Take `CCOC(=O)CCSc1nc2ccc(I)cc2c(=O)n1Cc1ccccc1`: the GI50 in the test on HL-60 was 19.5 µM (inactive); with SF-268 it was 27.2 µM (inactive); in the test on UACC-257, 25.5 µM (inactive); in the test with OVCAR-3, 17.9 µM (inactive); in the test on MDA-MB-435, 27.5 µM (inactive); in the test on SR, 7.24 µM (inactive). The GI50 was 26.9 µM (inactive) with RXF 393; 37.5 µM (inactive) with OVCAR-8; 0.395 µM (active) in the test with UO-31; 23.7 µM (inactive) in the test on NCI/ADR-RES; 30.3 µM (inactive) in the test with SNB-75; > 65.6 µM (inactive) in the test with SK-MEL-28. Moreover, the GI50 is 33 µM (inactive) in the test on U-251; > 83.8 µM (inactive) in the test with OVCAR-5; 19.5 µM (inactive) in the test with OVCAR-4; 9.91 µM (inactive) in the test with IGROV-1; 24.5 µM (inactive) with M14; 13.6 µM (inactive) in the test on HOP-92. Also, the GI50 was 12.6 µM (inactive) with SK-MEL-5 and 17.9 µM (inactive) in the test on Malme-3M.

For `N#CSc1[nH]cnc1C(N)=O`, the GI50 was 2.8 µM (inactive) in the test with HL-60; > 100 µM (inactive) with SF-268; > 100 µM (inactive) in the test with UACC-257; > 100 µM (inactive) in the test with OVCAR-3; > 100 µM (inactive) with MDA-MB-435; < 0.01 µM (active) in the test with SR. Besides, the GI50 with RXF 393 was > 100 µM (inactive); in the test on OVCAR-8, > 100 µM (inactive); with UO-31, > 93.5 µM (inactive); in the test with NCI/ADR-RES it was > 85.5 µM (inactive); in the test on SNB-75, > 100 µM (inactive); with SK-MEL-28, 76.2 µM (inactive). Besides, the GI50 in the test with U-251 was > 95.9 µM (inactive); with OVCAR-5, > 100 µM (inactive); with OVCAR-4 it was > 100 µM (inactive); in the test on IGROV-1, > 100 µM (inactive); with M14, 62.7 µM (inactive); with HOP-92, > 100 µM (inactive). Besides, the GI50 is > 100 µM (inactive) in the test on SK-MEL-5 and 17.4 µM (inactive) in the test with Malme-3M.

In the case of `CN(C)CC1CCCC(CN2CCCCC2)C1=O` (centres undefined), the GI50 is 2.18 µM (inactive) in the test on HL-60; 19.5 µM (inactive) in the test on SF-268; 14.6 µM (inactive) with UACC-257; 8.63 µM (inactive) in the test with OVCAR-3; 17.1 µM (inactive) in the test with MDA-MB-435; 10.8 µM (inactive) in the test with SR. Besides, the GI50 in the test with RXF 393 was 12.8 µM (inactive); in the test on OVCAR-8, 14.2 µM (inactive); in the test with UO-31, 17.2 µM (inactive); with NCI/ADR-RES, 3.89 µM (inactive); with SNB-75, 19.4 µM (inactive); in the test on SK-MEL-28, 13.9 µM (inactive). The GI50 is > 54.6 µM (inactive) in the test on U-251; 31.4 µM (inactive) in the test on OVCAR-5; 4.25 µM (inactive) in the test on OVCAR-4; 17 µM (inactive) in the test on IGROV-1; 7.73 µM (inactive) in the test on M14; 1.96 µM (inactive) with HOP-92. Moreover, the results for the GI50 in the test on SK-MEL-5 and in the test with Malme-3M were 18.7 µM (inactive) and 3.33 µM (inactive), respectively.

As for `COC(=O)c1ccc(C)cc1CC1Cc2c(C)cccc2C1=O` (centres undefined), the GI50 with HL-60 is 4.54 µM (inactive); in the test on SF-268 it was 9.89 µM (inactive); in the test on UACC-257 it was 10.4 µM (inactive); with OVCAR-3 it was 3.96 µM (inactive); in the test on MDA-MB-435 it was 1.82 µM (inactive); in the test on SR it was 9.35 µM (inactive). The GI50 with RXF 393 was 10.9 µM (inactive); with OVCAR-8, 14.3 µM (inactive); in the test with UO-31 it was 15.9 µM (inactive); with NCI/ADR-RES, 3.35 µM (inactive); in the test with SNB-75, 4.16 µM (inactive); with SK-MEL-28, 15.2 µM (inactive). Also, the GI50 with U-251 is 5.96 µM (inactive); in the test on OVCAR-5 it was 34.4 µM (inactive); with OVCAR-4, 25.5 µM (inactive); in the test on IGROV-1, 5.62 µM (inactive); in the test on M14 it was 9.27 µM (inactive); in the test with HOP-92 it was 16.9 µM (inactive). The GI50 in the test with SK-MEL-5 is 5.82 µM (inactive); in the test with Malme-3M it was 10.7 µM (inactive).

Regarding `O=C1CC(C(OCc2ccccc2)C(OCc2ccccc2)C(OCc2ccccc2)C(COCc2ccccc2)OCc2ccccc2)CC(=O)N1` (centres undefined), the GI50 in the test on HL-60, with SF-268, with UACC-257, in the test with OVCAR-3, with MDA-MB-435 and in the test on SR was > 100 µM (inactive) each time. The GI50 with RXF 393 was 6.52 µM (inactive); in the test with OVCAR-8, > 100 µM (inactive); with UO-31, 60.1 µM (inactive); in the test on NCI/ADR-RES it was > 100 µM (inactive); in the test with SNB-75, > 100 µM (inactive); in the test on SK-MEL-28, > 100 µM (inactive). The GI50 in the test with U-251 was 79.8 µM (inactive); in the test on OVCAR-5 it was > 100 µM (inactive); with OVCAR-4, > 100 µM (inactive); in the test with IGROV-1, > 100 µM (inactive); in the test with M14, > 100 µM (inactive); with HOP-92 it was 18 µM (inactive). Moreover, the GI50 with SK-MEL-5 and with Malme-3M was > 100 µM (inactive) each time.

Take `CC(=O)OCC1OC(n2c(C)c(/N=N/c3ccccc3)c(C)c(C#N)c2=S)C(OC(C)=O)C(OC(C)=O)C1OC(C)=O` (centres undefined): the GI50 was > 100 µM (inactive) with HL-60; 57.1 µM (inactive) in the test with SF-268; > 100 µM (inactive) with UACC-257; > 100 µM (inactive) in the test on OVCAR-3; > 100 µM (inactive) with MDA-MB-435; > 100 µM (inactive) in the test on SR. The GI50 in the test with RXF 393 was 14.4 µM (inactive); in the test on UO-31 it was > 100 µM (inactive); in the test with NCI/ADR-RES, 55.3 µM (inactive); with SNB-75 it was 1.85 µM (inactive); in the test on SK-MEL-28, > 100 µM (inactive); in the test on U-251 it was > 10 µM (inactive). Also, the GI50 with OVCAR-5 was 86.9 µM (inactive); in the test on OVCAR-4, 48.9 µM (inactive); with IGROV-1, 99.1 µM (inactive); in the test on M14, 33.7 µM (inactive); in the test on HOP-92 it was 8.99 µM (inactive); in the test on SK-MEL-5 it was 34 µM (inactive). Also, the GI50 with Malme-3M is 46.3 µM (inactive).

The values above are taken from ChEMBL document CHEMBL1201862, “PubChem BioAssay data set” (2004).
